Where “and” joins values, the source holds several entries; their conditions need not be identical. Equal entries are not always repeated.
Target: JNK1 (Homo sapiens, UniProt P45983)
Test: JNK1 kinase DELFIA (phosphorylation of biotinylated GST-ATF2)
Assay type: biochemical
Settings: DELFIA, 2 nM JNK1, final ATP 7 uM, 10 min pre-incubation; reported as range for a group
Method: (§1) Before initiation of kinase reactions, compounds were pre-incubated with the enzyme for 10 minutes. Pre-incubation reactions contained 50 mM HEPES pH 7.3, 10 mM MgCl2, 1 mM DTT, 75 mM NaCl, 1 mM EDTA, 1 mM EGTA, 0.01% CHAPS, 2 nM JNK1, 6 ug/mL biotinylated GST-ATF2, 0.1 mg/ml BSA, 5% DMSO and 0-100 μM compound in a total volume of 40 μL. After a 10 minute room temperature pre-incubation, 10 μL of 35 μM ATP was added to start the reaction (final concentration of ATP=7 uM). Reactions were incubated at room temperature for 30 minutes. A small aliquot (10 uL) was taken and quenched by adding into 190 uL of DELFIA Assay buffer containing 100 mM EDTA. The amount of phosphate transferred to biotinylated GST-ATF2 was measured using the Dissociation Enhanced Lanthanide Fluorescence Immuno-assay (DELFIA) from Perkin Elmer according to manufacturers protocol. Briefly, biotinylated GST-ATF2 was captured on streptavidin coated plates for 1 hour, washed twice, then incubated for 1 hour with a 1:1000 dilution of rabbit-anti-phospho-ATF2 antibody and a 1:3500 dilution of Europium-labeled anti-rabbit secondary antibody. Free antibody was removed with six washes, Europium was dissociated from the antibody, and Europium fluorescence was measured using an excitation wavelength of 340 nm and an emission wavelength of 615 nm. JNK2 and JNK3 kinase reactions were carried out similarly, with the exception that the final concentration of ATP was 4 uM and 2 uM, respectively.

JNK1, sequence (P45983 whole entry, species assumed): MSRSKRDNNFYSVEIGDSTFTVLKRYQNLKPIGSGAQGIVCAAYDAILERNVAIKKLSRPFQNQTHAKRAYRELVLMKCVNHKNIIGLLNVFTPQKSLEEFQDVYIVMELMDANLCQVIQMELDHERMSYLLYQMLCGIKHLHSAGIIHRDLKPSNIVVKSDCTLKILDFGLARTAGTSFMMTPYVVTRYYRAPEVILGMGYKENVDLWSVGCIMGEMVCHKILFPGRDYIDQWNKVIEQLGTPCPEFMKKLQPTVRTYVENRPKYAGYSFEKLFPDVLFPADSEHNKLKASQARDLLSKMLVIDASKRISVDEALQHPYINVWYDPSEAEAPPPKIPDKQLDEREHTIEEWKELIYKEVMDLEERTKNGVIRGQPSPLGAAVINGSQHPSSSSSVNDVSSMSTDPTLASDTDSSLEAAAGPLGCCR

SMILES	IC50
CC[C@H](C)[C@@H](CO)NC(=O)c1c(-c2ccsc2)nc2c(C(=O)NCc3ccc4nc(N)sc4c3)cccn12 [Compound 46]	6 to 100 nM
CC(C)[C@@H](CO)NC(=O)c1c(-c2ccsc2)nc2c(C(=O)NCc3ccc4nc(N)sc4c3)cccn12 [Compound 47]	6 to 100 nM
Nc1nc2ccc(CNC(=O)c3cccn4c(C(=O)N[C@H](CO)C5CCCCC5)c(-c5ccsc5)nc34)cc2s1 [Compound 69]	6 to 100 nM
CC(C)C[C@@H](CO)NC(=O)c1c(-c2ccsc2)nc2c(C(=O)NCc3ccc4c(c3)OCO4)cccn12 [Compound 94]	6 to 100 nM
CC(C)c1nc2ccc(CNC(=O)c3cccn4c(C(=O)NCC5(O)CCCCC5)c(-c5ccsc5)nc34)cc2[nH]1 [Compound 117]	6 to 100 nM
Cc1nc2ccc(CNC(=O)c3cccn4c(C(=O)NCC5(O)CCCCC5)c(-c5ccsc5)nc34)cc2[nH]1 [Compound 118]	6 to 100 nM
CCc1nc2c(C(=O)NCc3ccc4nc(C)sc4c3)cccn2c1C(=O)N[C@H](CO)CC(C)C [Compound 131]	6 to 100 nM
Cc1nc2cc(CNC(=O)c3cccn4c(C(=O)N[C@H](CO)CC(C)C)c(-c5ccsc5)nc34)ccc2n1C [Compound 139]	6 to 100 nM and 6 to 20 nM
CC(C)C[C@@H](CO)NC(=O)c1c(-c2ccsc2)nc2c(C(=O)NCc3cnc4nc(N)sc4c3)cccn12 [Compound 150]	6 to 100 nM
CNc1nc2ccc(CNC(=O)c3cccn4c(C(=O)N[C@H](CO)CC(C)C)c(-c5ccccn5)nc34)cc2s1 [Compound 156]	6 to 20 nM
CC(C)C[C@@H](CO)NC(=O)c1c(-c2ccsc2)nc2c(C(=O)NCc3ccc(C(F)(F)F)nc3)cccn12 [Compound 209]	6 to 100 nM
CC(C)C[C@@H](CO)NC(=O)c1c(-c2ccsc2)nc2c(C(=O)N[C@H](C)c3ccc(O)cc3)cccn12 [Compound 213]	6 to 100 nM
CC(C)C[C@@H](CO)NC(=O)c1c(-c2ccsc2)nc2c(C(=O)NCc3cnn(-c4cccc(C(F)(F)F)c4)c3)cccn12 [Compound 224]	6 to 100 nM
O=C(NCc1ccc2c(c1)OCO2)c1cccn2c(C(=O)N[C@H](CO)c3ccccc3)c(-c3ccsc3)nc12 [Compound 238]	6 to 100 nM
CSCC[C@@H](CO)NC(=O)c1c(-c2ccsc2)nc2c(C(=O)NCc3ccc(S(C)(=O)=O)cc3)cccn12 [Compound 242]	6 to 100 nM
COc1ccc(-c2cc(CNC(=O)c3cccn4c(C(=O)N[C@H](CO)CC(C)C)c(-c5ccsc5)nc34)no2)cc1 [Compound 274]	6 to 100 nM
CC(C)C[C@@H](CO)NC(=O)c1c(-c2ccsc2)nc2c(C(=O)NCc3ccc4[nH]ncc4c3)cccn12 [Compound 277]	6 to 100 nM and 6 to 20 nM
Nc1nc2ccc(CNC(=O)c3cccn4c(C(=O)N[C@@H]5c6ccccc6C[C@@H]5O)c(-c5ccsc5)nc34)cc2s1 [Compound 279]	6 to 100 nM
CCCC[C@@H](CO)NC(=O)c1c(-c2ccsc2)nc2c(C(=O)NCc3ccc4nc(N)sc4c3)cccn12 [Compound 280]	6 to 100 nM
Nc1nc2ccc(CNC(=O)c3cccn4c(C(=O)NC5CCCC5CO)c(-c5ccsc5)nc34)cc2s1 (stereo not drawn) [Compound 283]	6 to 100 nM
Nc1nc2ccc(CNC(=O)c3cccn4c(C(=O)N[C@@H](CO)CC5CC5)c(-c5ccsc5)nc34)cc2s1 [Compound 285]	6 to 100 nM
CC(C)C[C@@H](CO)NC(=O)c1c(-c2ccsc2)nc2c(C(=O)NCc3ccc(NC4CCCC4)nc3)cccn12 [Compound 292]	6 to 100 nM
CC(C)C[C@@H](CO)NC(=O)c1c(-c2ccsc2)nc2c(C(=O)NCc3ccc(N4CCCCCC4)nc3)cccn12 [Compound 298]	6 to 100 nM

More lines, now with the values ahead:

IC50	SMILES
6 to 100 nM	CC(C)C[C@@H](CO)NC(=O)c1c(-c2ccsc2)nc2c(C(=O)NCc3ccc(-c4ccccc4)nc3)cccn12 [Compound 305]
6 to 100 nM	CC(C)C[C@@H](CO)NC(=O)c1c(-c2ccsc2)nc2c(C(=O)NCc3ccc(N4CCCC4=O)nc3)cccn12 [Compound 324]
6 to 100 nM	CC(C)C[C@@H](CO)NC(=O)c1c(-c2ccsc2)nc2c(C(=O)NCc3ccc(C(=O)O)cc3)cccn12 [Compound 326]
6 to 100 nM	CC(C)C[C@@H](CO)NC(=O)c1c(-c2cccnc2)nc2c(C(=O)NCc3ccc4nc(N)sc4c3)cccn12 [Compound 405]
6 to 100 nM	CCc1nc2c(C(=O)NCc3cnn(-c4ccc(C)cc4)c3)cccn2c1C(=O)O [Compound 445]
6 to 100 nM	CC(C)C[C@@H](CO)NC(=O)c1c(-c2ccc(Cl)cc2)nc2c(C(=O)NCc3ccc4nc(N)sc4c3)cccn12 [Compound 453]
6 to 100 nM	CCc1nc2c(C(=O)NCc3ccc(S(C)(=O)=O)cc3)cccn2c1C(=O)N[C@H](CO)CC(C)C [Compound 457]
6 to 100 nM	CCc1nc2c(C(=O)NCc3ccc4[nH]ncc4c3)cccn2c1C(=O)N[C@H](CO)CC(C)C [Compound 471]
6 to 100 nM	CCc1nc2c(C(=O)NCc3cnn(-c4ccc(S(C)(=O)=O)cc4)c3)cccn2c1C(=O)N[C@H](CO)CC(C)C [Compound 472]
6 to 100 nM	CC(C)C[C@@H](CO)NC(=O)c1c(-c2ccccn2)nc2c(C(=O)NCc3ccn(-c4ccccc4)n3)cccn12 [Compound 477]
6 to 100 nM	Cc1nc2ccc(CNC(=O)c3cccn4c(C(=O)NC(C)C)c(-c5ccccn5)nc34)cc2[nH]1 [Compound 480]
6 to 100 nM	CC(C)C[C@@H](CO)NC(=O)c1c(-c2ccccn2)nc2c(C(=O)NCc3cnc4nc(N)sc4c3)cccn12 [Compound 481]
6 to 100 nM	CC(C)C[C@@H](CO)NC(=O)c1c(-c2ccccn2)nc2c(C(=O)NCc3cnn(-c4cccc(C(F)(F)F)c4)c3)cccn12 [Compound 484]
6 to 100 nM and 6 to 20 nM	CC(C)C[C@@H](CO)NC(=O)c1c(-c2ccccn2)nc2c(C(=O)NCc3ccc(N4CCCC4=O)cc3)cccn12 [Compound 485]
6 to 100 nM	CC(C)C[C@@H](CO)NC(=O)c1c(-c2ccccn2)nc2c(C(=O)NCc3ccc4occc4c3)cccn12 [Compound 489]
6 to 100 nM	Cc1cccc(-n2cc(CNC(=O)c3cccn4c(C(=O)N[C@H](CO)CC(C)C)c(-c5ccccn5)nc34)cn2)c1 [Compound 490]
6 to 100 nM and 6 to 20 nM	CC(C)C[C@@H](CO)NC(=O)c1c(-c2ccccn2)nc2c(C(=O)NCc3cnn(-c4ccc(S(C)(=O)=O)cc4)c3)cccn12 [Compound 491]
6 to 100 nM and 6 to 20 nM and 6 to 10 nM	CC(C)C[C@@H](CO)NC(=O)c1c(-c2ccccn2)nc2c(C(=O)NCc3ccc4[nH]ncc4c3)cccn12 [Compound 502]
6 to 100 nM	CC(C)C[C@@H](CO)NC(=O)c1cnc2c(C(=O)NCc3ccc4nc(N)sc4c3)cccn12 [Compound 543]
6 to 100 nM	CC(C)C[C@@H](CO)NC(=O)c1c(-c2ccccc2F)nc2c(C(=O)NCc3ccc4nc(N)sc4c3)cccn12 [Compound 545]
6 to 100 nM	COC[C@H](CC(C)C)NC(=O)c1c(-c2ccsc2)nc2c(C(=O)NCc3ccc4nc(N)sc4c3)cccn12 [Compound 593]
6 to 100 nM and 6 to 20 nM	Cc1nc2c(C(=O)NCc3ccc4nc(N)sc4c3)cccn2c1C(=O)N[C@H](CO)CC(C)C [Compound 598]
6 to 20 nM and 6 to 10 nM	CC(C)C[C@@H](CO)NC(=O)c1cnc2c(C(=O)NCc3cnn(-c4ccc(S(C)(=O)=O)cc4)c3)cccn12 [Compound 629]
6 to 100 nM and 6 to 20 nM	Cc1nc2ccc(-n3cc(CNC(=O)c4cccn5c(C(=O)N[C@H](CO)CC(C)C)cnc45)cn3)cc2n1C [Compound 647]
6 to 100 nM and 6 to 20 nM	CC(C)C[C@@H](CO)NC(=O)c1cnc2c(C(=O)NCc3cnn(-c4ccc(S(=O)(=O)N(C)C)cc4)c3)cccn12 [Compound 650]
6 to 100 nM and 6 to 20 nM and 6 to 10 nM	CC(C)CC(CO)NC(=O)c1cnc2c(C(=O)NCc3cnn(-c4ccc(S(=O)(=O)N(C)C)c(Cl)c4)c3)cccn12 (stereo not drawn) [Compound 651]
6 to 100 nM and 6 to 20 nM and 6 to 10 nM	CC(C)C[C@@H](CO)NC(=O)c1cnc2c(C(=O)NCc3cnn(-c4ccc(S(=O)(=O)N(C)C)c(F)c4)c3)cccn12 [Compound 652]
6 to 100 nM	CC(C)C[C@@H](CO)NC(=O)c1c(-c2ccsc2)nc2c(NC(=O)Cc3ccc4c(c3)OCO4)cccn12 [Compound 664]

Same assay, conditions: read-out: JNK 1 IC50

SMILES	IC50
Cc1nc2ccc(CNC(=O)c3cccn4c(C(=O)NCC5(O)CCCCC5)c(-c5ccsc5)nc34)cc2[nH]1 [Compound 118]	23 nM
Cc1nc2ccc(-n3cc(CNC(=O)c4cccn5c(C(=O)N[C@H](CO)CC(C)C)cnc45)cn3)cc2n1C [Compound 647]	16 nM
CC(C)CC(CO)NC(=O)c1cnc2c(C(=O)NCc3cnn(-c4ccc(S(=O)(=O)N(C)C)c(Cl)c4)c3)cccn12 (stereo not drawn) [Compound 651]	10 nM
CC(C)C[C@@H](CO)NC(=O)c1cnc2c(C(=O)NCc3cnn(-c4ccc(S(=O)(=O)N(C)C)c(F)c4)c3)cccn12 [Compound 652]	11 nM

Target: JNK2 (Homo sapiens, UniProt P45984)
Test: JNK2 kinase DELFIA (phosphorylation of biotinylated GST-ATF2)
Assay type: biochemical
Settings: final ATP 4 uM, reported as range for a group
Method: as §1

JNK2, sequence (P45984 whole entry, species assumed): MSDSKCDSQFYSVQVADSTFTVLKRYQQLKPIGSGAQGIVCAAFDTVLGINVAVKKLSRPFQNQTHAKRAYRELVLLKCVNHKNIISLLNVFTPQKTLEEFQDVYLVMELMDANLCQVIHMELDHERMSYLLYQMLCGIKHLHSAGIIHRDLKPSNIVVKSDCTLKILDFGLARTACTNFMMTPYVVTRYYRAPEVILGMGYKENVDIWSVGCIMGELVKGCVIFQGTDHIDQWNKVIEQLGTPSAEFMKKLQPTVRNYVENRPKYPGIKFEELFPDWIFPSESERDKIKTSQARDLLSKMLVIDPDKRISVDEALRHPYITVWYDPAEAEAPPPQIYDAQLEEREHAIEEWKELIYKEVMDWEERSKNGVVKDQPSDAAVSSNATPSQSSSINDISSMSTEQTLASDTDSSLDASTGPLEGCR

SMILES	IC50
CC[C@@H](CO)NC(=O)c1c(-c2ccsc2)nc2c(C(=O)NCc3ccc4nc(N)sc4c3)cccn12 [Compound 13]	201 to 666 nM
Nc1nc2ccc(CNC(=O)c3cccn4c(C(=O)NCC5(O)CCCCC5)c(-c5ccsc5)nc34)cc2s1 [Compound 15]	107 to 173 nM
C[C@H](CO)NC(=O)c1c(-c2ccsc2)nc2c(C(=O)NCc3ccc4nc(N)sc4c3)cccn12 [Compound 23]	107 to 173 nM
CC(C)CNC(=O)c1c(-c2ccsc2)nc2c(C(=O)NCc3ccc4nc(N)sc4c3)cccn12 [Compound 38]	201 to 666 nM
C[C@@H](NC(=O)c1c(-c2ccsc2)nc2c(C(=O)NCc3ccc4nc(N)sc4c3)cccn12)c1ccccc1 [Compound 42]	52 to 94 nM
Cc1cc(C(=O)NCc2ccc3nc(N)sc3c2)c2nc(C)c(C(=O)N[C@H](CO)CC(C)C)n2c1 [Compound 351]	1070 to 11500 nM

Target: JNK3 (Homo sapiens, UniProt P53779)
Test: JNK3 kinase DELFIA (phosphorylation of biotinylated GST-ATF2)
Assay type: biochemical
Settings: final ATP 2 uM
Method: as §1

JNK3, sequence (P53779 whole entry, species assumed): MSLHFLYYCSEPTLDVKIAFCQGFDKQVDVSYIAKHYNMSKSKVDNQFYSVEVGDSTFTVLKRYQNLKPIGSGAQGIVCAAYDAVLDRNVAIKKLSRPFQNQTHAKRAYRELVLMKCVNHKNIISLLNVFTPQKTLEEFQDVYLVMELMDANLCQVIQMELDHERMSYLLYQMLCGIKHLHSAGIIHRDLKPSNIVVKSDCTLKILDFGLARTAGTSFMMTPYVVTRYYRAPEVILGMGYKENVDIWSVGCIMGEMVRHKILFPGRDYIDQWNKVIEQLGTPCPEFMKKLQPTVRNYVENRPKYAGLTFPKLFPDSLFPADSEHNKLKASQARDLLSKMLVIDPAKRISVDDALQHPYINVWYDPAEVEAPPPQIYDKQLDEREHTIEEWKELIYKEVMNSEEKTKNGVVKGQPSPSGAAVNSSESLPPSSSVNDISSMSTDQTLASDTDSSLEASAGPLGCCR

SMILES	IC50
CC[C@@H](CO)NC(=O)c1c(-c2ccsc2)nc2c(C(=O)NCc3ccc4nc(N)sc4c3)cccn12 [Compound 13]	54 to 98 nM
Nc1nc2ccc(CNC(=O)c3cccn4c(C(=O)NCC5(O)CCCCC5)c(-c5ccsc5)nc34)cc2s1 [Compound 15]	118 to 174 nM
C[C@H](CO)NC(=O)c1c(-c2ccsc2)nc2c(C(=O)NCc3ccc4nc(N)sc4c3)cccn12 [Compound 23]	118 to 174 nM
CC(C)CNC(=O)c1c(-c2ccsc2)nc2c(C(=O)NCc3ccc4nc(N)sc4c3)cccn12 [Compound 38]	54 to 98 nM
C[C@@H](NC(=O)c1c(-c2ccsc2)nc2c(C(=O)NCc3ccc4nc(N)sc4c3)cccn12)c1ccccc1 [Compound 42]	118 to 174 nM

— patent publication US20100298314A1, “NOVEL JNK INHIBITORS” (Schering Corporation, priority 2006, published 2010)
